Assay results from US20110111400A1, “METHOD FOR ENHANCING CHEMICAL SENSITIVITY OR RADIOSENSITIVITY OF CANCER CELLS BY INHIBITING EXPRESSION OF TSPYL5” (Korea Atomic Energy Research Institute, priority 2009, published 2011).

Tests used:
TSPYL5 gene [1] = assay: RT-PCR of TSPYL5 expression level after siRNA transduction, H1299; format: cell-based, human; conditions: H1299 cells, 40~80 nM RNAi, compared to siControl
Protocol: (§1) In order to compare the expression levels of TSPYL5 in lung cancer cell lines A549, H460, and H1299, reverse transcription polymerase chain reaction (RT-PCR) was performed. The RT-PCR was performed in the following manner: a mixture of 10 mM dNTPs, 5×RT buffer, 0.5 μg/μl oligo dT, addition of each of 4 μg of heat denaturated (70° C., 10 min) total RNA of lung cancer cell lines H460, A549, and H1299, and 200 U/μl M-MLV RTase, 0.02% diethyl pyrocarbonate (DEPC)-treated sterilized water to a final volume of 20 μl, followed by reaction at 45° C. for 30 min. Next, the mixture was heated to 94° C. for 5 min, and then snap-cooled on ice to deactivate the M-MLV RTase. 1 μl of the cDNA synthesized by the method was mixed with 10× buffer (MgCl2 free), 2.5 mM dNTPs, 10× MgCl2, and Taq DNA polymerase. 10 pmol of primer for TSPYL5 or β-actin was added to the mixture and amplified under the following conditions. Then, for TSPYL5 primer, EcoRI/Forward: 5′-[…]-3′ represented by SEQ ID No: 3 as a forward primer and EcoRI/reverse: 5′-CCGGAATTCTC AGTTGGATTGGCTCACCCC-3′ represented by SEQ ID NO: 4 as a reverse primer were used. Pre-denaturation at 94° C. for 5 min, denaturation at 94° C. for 1 min, annealing at 60° C. for 1.5 min, cycles of elongation at 72° C. for 1 min were performed, followed by post-elongation at 72° C. for 10 min. […]

TSPYL5 gene [2] = assay: RT-PCR of TSPYL5 expression level after siRNA transduction, A549; format: cell-based, human; conditions: A549 cells, 40~80 nM RNAi, compared to siControl
Protocol: as §1

C2-131714: 25mer TSPYL5 stealth-RNAi duplex oligoribonucleotide, SEQ ID Nos: 10 and 11 (chain 1 AAAGGUAGAACUGCAAGGGAUUGGG; chain 2 CCCAAUCCCUUGCAGUUCUACCUUU; Invitrogen Stealth RNAi, modifications not given here)
expression levels of TSPYL5 (TSPYL5 gene [1]): reduced the most effectively | expression levels of TSPYL5 (TSPYL5 gene [2]): reduced the most effectively
